PubChem BioAssay (NCI)
In brackets after ≈: the same amount, converted by molar mass.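 Compound exposure: 48 hours, 5 concentrations, 96-well plates. GI50: concentration for 50% inhibition of growth. The concentration for full growth arrest is given as TGI.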

Tests used:
Test in all cases: NCI tumour cell line growth inhibition, 48 h
P388/ADR leukemia = system: P388/ADR leukemia
P388 leukemia = system: P388 leukemia
SN12K1 renal = system: SN12K1 renal
HCT-116 colon = system: HCT-116 colon
T-47D breast = system: T-47D breast
PC-3 prostate = system: PC-3 prostate
MDA-N = system: MDA-N
HS 578T breast = system: HS 578T breast
MDA-MB-231 breast = system: MDA-MB-231 breast
LXFL 529 NSCLC = system: LXFL 529 NSCLC
RXF-631 renal = system: RXF-631 renal
786-0 renal = system: 786-0 renal
BT-549 breast = system: BT-549 breast
M19-MEL melanoma = system: M19-MEL melanoma

| Compound | TGI (P388/ADR leukemia) | TGI (P388 leukemia) | TGI (SN12K1 renal) | TGI (HCT-116 colon) | TGI (T-47D breast) | TGI (PC-3 prostate) | TGI (MDA-N) | TGI (HS 578T breast) | TGI (MDA-MB-231 breast) | TGI (786-0 renal) | TGI (BT-549 breast) | TGI (M19-MEL melanoma) | other results |
| --- | --- | --- | --- | --- | --- | --- | --- | --- | --- | --- | --- | --- | --- |
| O=C(O)CCC(NC(=O)c1ccc(Nc2cnc3cc(C(F)(F)F)ccc3n2)cc1)C(=O)O (stereo not given) | > 100 µM | > 100 µM | > 100 µM | > 100 µM |  |  |  |  |  |  |  |  |  |
| O=Cc1cn(CCCCCCCCn2cc(C=O)c3ccccc32)c2ccccc12 |  |  |  | > 10 µM | > 10 µM | > 10 µM | > 10 µM | > 10 µM | > 10 µM |  |  |  |  |
| ICC1CCCO1 (stereo not given) |  |  |  | > 100 µM |  |  |  |  |  |  |  |  | TGI (LXFL 529 NSCLC): > 100 µM; TGI (RXF-631 renal): > 100 µM |
| CCN(CC)CCNc1ccc2ncn3c4ccc(OC)cc4c(=O)c1c23 |  |  |  | 13.5 µM | 40.5 µM | 18.8 µM | 19.6 µM | 30.4 µM |  | 15.5 µM | 33 µM | 20.4 µM | TGI (LXFL 529 NSCLC): 20 µM; TGI (RXF-631 renal): 15.8 µM |
| O=C(NN1C(=O)CS(=O)(=O)C1c1ccc(Cl)c(Cl)c1)c1ccncc1 (stereo not given) | > 74.8 µM | > 60.1 µM | > 100 µM | > 100 µM |  |  |  |  |  |  |  | > 100 µM |  |
| CC(=O)[O-].CC(=O)[O-].O=C(N/N=C/c1cc(Cl)cc(Cl)c1[OH2+])c1ccncc1.[Mn+2] |  |  |  | 17.7 µM |  |  |  |  |  | 15.6 µM |  |  |  |
| Cc1cc(O)c2c(c1)C(=O)c1c(c(O)cc(O)c1-c1c(O)cc(O)c3c1C(=O)c1cc(C)cc(O)c1C3=O)C2=O | 99.8 µM | 63 µM | 39.9 µM | 33.7 µM |  |  |  |  |  |  |  | 59.4 µM |  |
| Cc1nc2nc(C)n(CCN3CCOCC3)c(=O)c2c(-c2cccc([N+](=O)[O-])c2)c1C(=O)CCCCCCCCCCN1CCC(c2ccccc2)(c2ccccc2)CC1 |  |  |  | 3.45 µg/mL |  |  |  |  | 3.53 µg/mL |  | 4.48 µg/mL |  | GI50 (BT-549 breast): 2.33 µg/mL (≈ 2.87 µM); GI50 (MDA-MB-231 breast): 1.68 µg/mL (≈ 2.07 µM); GI50 (HCT-116 colon): 1.63 µg/mL (≈ 2 µM) |
| CC1(c2ccccc2)O[C@@H]2C[C@H]3[C@@H]4CCC5=CC(=O)C=C[C@]5(C)[C@@]4(F)[C@@H](O)C[C@]3(C)[C@]2(C(=O)CO)O1 (stereo not given in full) |  |  |  | 27.8 µM | 41 µM | 30.9 µM | 35.3 µM | 45.4 µM | 24.5 µM | 32.2 µM | 38.6 µM |  |  |
| CCOP(=O)(C/C=C/Cn1ncc(=O)[nH]c1=O)OCC |  |  |  |  | > 100 µM | > 100 µM | > 100 µM | > 100 µM | > 100 µM |  | > 100 µM |  |  |
| C=C1CC(OC)(C(OC)C(=O)N[C@H]2OCO[C@H]3C2O[C@H](C[C@@H](COC)OC)C(C)(C)C3OC)O[C@H](C)[C@@H]1C (stereo not given in full) | 1.4 µM | 0.691 µM | 15.2 µM | 5.77 µM |  |  |  |  |  |  |  | 5.93 µM |  |
| Cc1cc(=O)oc2c1cc1ccc3cccc4ccc2c1c34 |  |  |  |  |  |  |  |  |  |  |  | > 100 µM | TGI (LXFL 529 NSCLC): > 100 µM |
| CN1CCC2(c3ccccc3)CC(=O)/C(=C/c3ccc(Cl)c(Cl)c3)C1C2 (stereo not given) |  |  |  | > 21 µM | > 41.5 µM | 4.52 µM | 13.9 µM | > 45.7 µM | 3.21 µM | 5.35 µM | 6.83 µM |  |  |
